The text below walks through data of ChEMBL document CHEMBL1131835, “Synthesis and biological evaluation of conformationally restricted Gabapentin analogues” (Bioorg Med Chem Lett, 1999).

Each structure is given as a SMILES string.

The test is described as follows: Displacement of [3H]gabapentin from alpha2-delta subunit of calcium channel.
On to `O=C(O)[C@@H]1CNCC12CCCCC2`, for which the IC50 (as a rule, the midpoint of a concentration-inhibition curve) was greater than 10 µM. Consider `O=C(O)C1NCC12CCCCC2` (configuration not stated), for which the IC50 is 1.5 µM. For the compound `O=C(O)C1CCNCC12CCCCC2` (configuration not stated), the IC50 is greater than 10 µM. In the case of `O=C(O)[C@H]1CNCC12CCCCC2`, the IC50 was 0.12 µM. For the compound `O=C(O)C[C@]12CCCC[C@H]1NC2`, the IC50 was greater than 10 µM. In the case of `O=C(O)C[C@]12CCCC[C@H]1CNC2`, the IC50 was greater than 10 µM. As to `NCC1(CC(=O)O)CCCCC1` [GABAPENTIN], the IC50 is […].
